Results: patent US9958439B2, “Carbohydrate detection” (RICHTER LIFE SCIENCE DEVELOPMENT AB, priority 2012, dated 2018)
Like-named read-outs stand apart in the source and are kept apart here.

What was measured:
[1] = test system: biofilm (curli, cellulose) of S. enteritidis wt strain 3934 and isogenic mutants; settings: 2 μg/ml LCO, unprocessed cultures, excitation 300-500 nm, emission 545 nm
Procedure: A fresh overnight culture of the clinically derived S. enteritidis wt strain 3934 and isogenic mutants (ΔbscA; ΔcsgA and ΔcsgD) was inoculated into fresh LB and cultivated at 37° C. to OD600=0.6. […] 50 μl of each culture was next inoculated in triplicates into separate wells of 96-well plates and incubated at 28° C. for 48 hours.
After removing the biofilm cultures from the incubator, no processing steps were implemented before the detection of LCO signals. […] Emission spectra for curli bound LCOs was collected by reading the emission signal between 500-700 nm when the sample was excited at 405 nm. Emission spectra for cellulose bound LCOs was collected by reading the emission signal between 520-700 nm when the sample was excited at 500 nm.

[2] = test system: biofilm of S. enteritidis wt strain 3934 and isogenic mutants ΔbscA, ΔcsgA, ΔcsgD; assay: LCO assay for fluorescence confocal analysis of biofilm and biofilm morphology; format: cell-based, Salmonella enteritidis; settings: for fluorescent signal from the LCO on biofilm versus phase contrast microscopy: 2 μg/ml LCO, fixed and washed cover-slip biofilm
Source text: Fluorescence confocal analysis (left side) and phase contrast analysis (right side) of the same slide are shown side by side.
Glass cover-slips were introduced to the wells of a 6-well plate (according to the set-up shown in FIG. 2A) to provide surfaces for biofilm formation, which at the end of experiment could be easily removed for microscope analysis. To prepare for the biofilm experiment, individual cultures of S. enteritidis wt strain 3934 and isogenic mutants ΔbscA, ΔcsgA, and ΔcsgD were grown in LB medium in flasks overnight. Each culture was diluted 100-fold in fresh LB and cultivated in a shaking incubator (230 rpm) at 37° C. to OD600=0.6. Cultures were diluted to a culture density of 10^5 CFU/ml in LB without salt and dispensed into the cover-slip containing 6 well plates in 8 ml aliquots. After incubating the plates for 48 h at 28° C., glass cover-slips were removed and washed twice with PBS before fixation in 4 ml of 4% formaldehyde for 1 h. […] PBS functioned as the negative control, used to assess the level of auto-fluorescence. Treated slides were then washed twice with PBS and mounted with Vectashield® for fluorescence-based confocal laser scanning microscopy analysis. Specifically, the edge of the biofilm formed at the liquid air interface was visualized using the appropriate fluorescence filters. […] The right side is an overlay of an optical inspection of bacterial presence by phase contrast with LCO fluorescence. Phase contrast is a traditional method for visual confirmation of biofilm attachment on surfaces.

[3] = test system: biofilm (curli, cellulose) of S. enteritidis 3934 wt and isogenic mutants; assay: Real time tracking of biofilm formation with h-FTAA; format: cell-based, Salmonella enteritidis; settings: 2 μg/ml in culture, curli Ex 405/Em 556 nm, cellulose Ex 500/Em 600 nm, hourly over 48 h
Procedure: A) comparison of OD600 (. . . ) against GFP signal (_) of a wt biofilm culture over 48 hours; B) correlation of OD600 against GFP signal; […].
The turbidity of a bacterial culture, measured by absorbance at OD600, is used to define culture density. Expression of GFP provides a direct representation of bacterial growth and culture density. S. enteritidis 3934 wt and isogenic mutants ΔbscA, ΔcsgA, and ΔcsgD were transformed with the plasmid P2777 which carries the gfp gene for a more direct representation of culture density through fluorescence detection. […] […]. RFU data of GFP and h-FTAA from the four plates were combined in a single plot to visualize the hourly change in signals over time.

[4] = for RFU change (Correlation analysis): probe-specific excitation λ, emission 545 nm; for carbohydrate can be detected and/or differentiated by the LCO: conclusion from change in signal magnitude and/or shift in λmax; for Gradient Parameters (gradient of regression line) / Linear relationship / Quality of Gradient: linear regression
Method in brief: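 LCO probes at 3 μM mixed with serial twofold carbohydrate dilutions in dH2O (10–0.039 or 5–0.019 mg/ml, depending on carbohydrate). Excitation scanned 300–500 nm, emission read at 545 nm; detection defined as reproducible shift in λmax and/or RFU relative to negative control, with linear regression of RFU against concentration.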

[5] = Method in brief: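 LCO probes at 3 μM mixed with serial two-fold carbohydrate dilutions in water (10–0.039 or 5–0.019 mg/ml), run in triplicate. Excitation scanned 300–500 nm with emission at 545 nm; detection based on reproducible λmax or RFU shift against the no-carbohydrate control, with linear regression of RFU on concentration.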
[6] = for RFU change (Correlation analysis): probe-specific excitation λ, emission 545 nm; for Gradient Parameters (gradient of regression line) / Quality of Gradient: linear regression
Method in brief: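 LCO probes at 3 μM mixed with serial two-fold dilutions of carbohydrate in dH2O (10–0.039 or 5–0.019 mg/ml, depending on carbohydrate), in triplicate. Excitation scanned 300–500 nm or fixed per probe (λmax or lowest background), emission at 545 nm. Detection taken as reproducible λmax/RFU shift vs no-carbohydrate control; RFU regressed linearly on concentration.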

[7] = for RFU change (Correlation analysis) / RFU change (Signal deviation with increasing [Carbohydrate]) / λmax change: 3 μM probe; for RFU change (Correlation analysis): probe-specific excitation λ, emission 545 nm; for RFU change (Signal deviation with increasing [Carbohydrate]) / λmax change: spectral analysis, Excitation 300-500, Emission 545; for carbohydrate can be detected and/or differentiated by the LCO: conclusion from change in signal magnitude and/or shift in λmax; for Gradient Parameters (gradient of regression line) / Linear relationship / Quality of Gradient: linear regression
Method in brief: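 Each LCO probe at 3 μM was added to two-fold serial dilutions of carbohydrate in dH2O (10–0.039 mg/ml for β-1,3-glucan, cellulose, chitin; 5–0.019 mg/ml for the others), run in triplicate. Excitation spectra were scanned 300–500 nm with emission at 545 nm. Detection was a reproducible λmax and/or RFU shift versus negative control, with linear regression of RFU against concentration.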

[8] = remark: listed apart in the source
Method in brief: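 LCO probes (3 μM) were added to serial two-fold dilutions of carbohydrate suspensions in dH2O, with excitation scanned 300–500 nm and emission at 545 nm. Detection was a reproducible λmax and/or RFU change versus no-carbohydrate control. RFU was regressed linearly against concentration at the λmax or the lowest-background excitation.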

[9] = remark: listed apart in the source
Method in brief: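 3 μM of each LCO probe was added to serial two-fold carbohydrate dilutions in water (10–0.039 or 5–0.019 mg/ml). Excitation spectra were scanned 300–500 nm with emission at 545 nm, in triplicate. Detection was defined as a reproducible shift in λmax and/or RFU versus negative control, with linear regression of RFU against concentration.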

[10] = Glycogen 5-0.019 mg/ml, 3 μM probe, spectral analysis, Excitation 300-500, Emission 545
[11] = glucose concentration vs RFU, linear regression
[12] = Cellulobiose 5-0.019 mg/ml, 3 μM probe, spectral analysis, Excitation 300-500, Emission 545
[13] = cellulobiose concentration vs RFU
[14] = β-1,3-glucan concentration vs RFU
[15] = sodium alginate concentration vs RFU, linear regression
[16] = Chondroitin Sulfate A 5-0.019 mg/ml, 3 μM probe, spectral analysis, Excitation 300-500, Emission 545
[17] = Chondroitin Sulfate A concentration vs RFU, linear regression

## hepta Hydrogen Thiophene Acetic Acid [h-HTAA]
[1]
  differentiation of biofilm morphologies of isogenic mutants by excitation spectra: did not differentiate biofilm morphologies
[2]
  fluorescent signal from the LCO on biofilm versus phase contrast microscopy: coincides with visible bacteria aggregates

## O=C(O)Cc1cc(-c2ccc(-c3ccc(C(=O)O)s3)s2)sc1-c1ccc(-c2sc(-c3ccc(-c4ccc(C(=O)O)s4)s3)cc2CC(=O)O)s1 [h-FTAA, hepta Formic Thiophene Acetic Acid]
[2]
  fluorescent signal from the LCO on biofilm versus phase contrast microscopy: coincides with visible bacteria aggregates
[2]; 2 μg/ml, ΔcsgA, confocal microscopy
  fluorescent signal with cellulose+ curli− ΔcsgA biofilm: gave a fluorescent signal
[3]
  real time analysis of biofilm formation: enables real time analysis of biofilm formation

## Cl.Cl.N=C(N)NCCC[C@H](NC(=O)Cc1cc(-c2cccs2)sc1-c1ccc(-c2sc(-c3cccs3)cc2CC(=O)N[C@@H](CCCNC(=N)N)C(=O)O)s1)C(=O)O [pHTA-Arg, penta Hydrogen Thiophene Acetic acid Arginine]
[4]; Glycogen 5-0.019 mg/ml, 3 μM probe
  RFU change (Correlation analysis): Increases
[4]; [10]
  RFU change (Signal deviation with increasing [Carbohydrate]): Increases
  λmax change: Redshift
[4]; Glycogen
  carbohydrate can be detected and/or differentiated by the LCO: can be detected and/or differentiated
[4]; Heparin 5-0.019 mg/ml, 3 μM probe
  RFU change (Correlation analysis): Increases
[4]; Heparin 5-0.019 mg/ml, 3 μM probe, spectral analysis, Excitation 300-500, Emission 545
  RFU change (Signal deviation with increasing [Carbohydrate]): Increases
[4]; Heparin
  carbohydrate can be detected and/or differentiated by the LCO: can be detected and/or differentiated
[4]; glycogen concentration vs RFU
  Gradient Parameters (gradient of regression line): 72.8 ± 13.4
  Linear relationship: Significant
  Quality of Gradient: Positive
[4]; heparin concentration vs RFU
  Gradient Parameters (gradient of regression line): 29.3 ± 8.6
  Linear relationship: Significant
  Quality of Gradient: Positive
[4]; to glycogen
  Sensitivity: Yes
[4]; to heparin
  Sensitivity: Yes
[5]; Glucose 5-0.019 mg/ml, 3 μM probe, probe-specific excitation λ, emission 545 nm
  RFU change (Correlation analysis): Unclear
[5]; Glucose 5-0.019 mg/ml, 3 μM probe, spectral analysis, Excitation 300-500, Emission 545
  RFU change (Signal deviation with increasing [Carbohydrate]): Increases
[5]; [11]
  Gradient Parameters (gradient of regression line): 17.9 ± 38.1
  Quality of Gradient: Horizontal
[5]; to glucose
  Sensitivity: No
[6]; Amylose 5-0.019 mg/ml, 3 μM probe
  RFU change (Correlation analysis): Unclear
[6]; Amylose 5-0.019 mg/ml, 3 μM probe, spectral analysis, Excitation 300-500, Emission 545
  RFU change (Signal deviation with increasing [Carbohydrate]): Unclear
[6]; Cellulobiose 5-0.019 mg/ml, 3 μM probe
  RFU change (Correlation analysis): Unclear
[6]; [12]
  RFU change (Signal deviation with increasing [Carbohydrate]): Unclear
  λmax change: No change
[6]; amylose concentration vs RFU
  Gradient Parameters (gradient of regression line): −28.4 ± 21.6
  Quality of Gradient: Horizontal
[6]; [13]
  Gradient Parameters (gradient of regression line): −1.30 ± 12.9
  Quality of Gradient: Horizontal
[6]; to amylose
  Sensitivity: No
[6]; to cellulobiose
  Sensitivity: No
[7]; Cellulose 10-[…]
  RFU change (Correlation analysis): Increase
  RFU change (Signal deviation with increasing [Carbohydrate]): Increase
  λmax change: Redshift
[7]; Cellulose
  carbohydrate can be detected and/or differentiated by the LCO: can be detected and/or differentiated
[7]; Chitin 10-[…]
  RFU change (Correlation analysis): Increases
  RFU change (Signal deviation with increasing [Carbohydrate]): Increases
  λmax change: Redshift
[7]; Chitin
  carbohydrate can be detected and/or differentiated by the LCO: can be detected and/or differentiated
[7]; cellulose concentration vs RFU
  Gradient Parameters (gradient of regression line): 194.0 ± 29.9
  Linear relationship: Significant
  Quality of Gradient: Positive
[7]; chitin concentration vs RFU
  Gradient Parameters (gradient of regression line): 338.2 ± 19.4
  Linear relationship: Significant
  Quality of Gradient: Positive
[7]; to cellulose
  Sensitivity: Yes
[7]; to chitin
  Sensitivity: Yes
[7]; to β-1,3-glucan
  Sensitivity: Yes
[7]; β-1,3-Glucan
  carbohydrate can be detected and/or differentiated by the LCO: can be detected and/or differentiated
[7]; β-1,3-glucan 10-[…]
  RFU change (Correlation analysis): Increase
  RFU change (Signal deviation with increasing [Carbohydrate]): Increase
[7]; [14]
  Gradient Parameters (gradient of regression line): 119.1 ± 16.69
  Quality of Gradient: Positive
[8]; Sodium alginate 5-0.019 mg/ml, 3 μM probe, probe-specific excitation λ, emission 545 nm
  RFU change (Correlation analysis): Increases
[8]; Sodium alginate 5-0.019 mg/ml, 3 μM probe, spectral analysis, Excitation 300-500, Emission 545
  RFU change (Signal deviation with increasing [Carbohydrate]): Increases
[8]; Sodium alginate, conclusion from change in signal magnitude and/or shift in λmax
  carbohydrate can be detected and/or differentiated by the LCO: can be detected and/or differentiated
[8]; [15]
  Gradient Parameters (gradient of regression line): 78.6 ± 18.6
  Linear relationship: Significant
  Quality of Gradient: Positive
[8]; to sodium alginate
  Sensitivity: Yes
[9]; Chondroitin Sulfate A 5-0.019 mg/ml, 3 μM probe, probe-specific excitation λ, emission 545 nm
  RFU change (Correlation analysis): Increases
[9]; [16]
  RFU change (Signal deviation with increasing [Carbohydrate]): Increases
  λmax change: No change
[9]; [17]
  Gradient Parameters (gradient of regression line): 143.4 ± 10.01
  Linear relationship: Significant
  Quality of Gradient: Positive
[9]; Chondroitin sulfate A, conclusion from change in signal magnitude and/or shift in λmax
  carbohydrate can be detected and/or differentiated by the LCO: can be detected and/or differentiated
[9]; to Chondroitin Sulfate A
  Sensitivity: Yes
